These results are taken from EP0112481A1, “Beta-lactam compound” (KYOWA HAKKO KOGYO CO., LTD, priority 1982, dated 1984).

What all share (experiment): Antibacterial effect, dilution method on Mueller-Hinton agar
What all share (assay type): cell-based

Assay [1] deals with Krebsiella pneumoniae 8045. Conditions: Mueller-Hinton agar (pH 7.0).
Assay [2] has as its system Escherichia coli NIHJJC-2. Conditions: NIHJJC2, Mueller-Hinton agar (pH 7.0).
The test system of the next assay is Serratia marcescens T-26. Conditions: T26, Mueller-Hinton agar (pH 7.0).
Assay [3] has as its system Enterobacter cloacae F 1510. Conditions: F1510, Mueller-Hinton agar (pH 7.0).
For assay [4], the system named is Citrobacter freundii F 1526. Conditions: F1526, Mueller-Hinton agar (pH 7.0).
The test system of another assay is Proteus mirabilis 1287. Conditions: Mueller-Hinton agar (pH 7.0).
In the next assay the test system is Proteus vulgaris 6897. Conditions: Mueller-Hinton agar (pH 7.0).
The test system of assay [5] is Staphylococcus aureus 209-P. Conditions: Mueller-Hinton agar (pH 7.0).

Converted amounts (≈) assume the structure as drawn.

Regarding `CON=C(C(=O)NC1C(=O)N2C(C(=O)O)=C(C=Cc3nnnn3C)CCC12)c1csc(N)n1` (racemic) [Compound of Ref. Ex. 9, (±)-6,7-cis-7-[2-(2-aminothiazol-4-yl)-2-syn-methoxyiminoacetamido]-3-[2-(1-methyl-1H-tetrazol-5-yl)vinyl]-1-azabicyclo [4.2.0] oct-2-en-8-oxo-2-carboxylic acid], the minimum inhibitory concentration (MIC) in assay [1] was 0.1 µg/mL (≈ 0.211 µM); in assay [2] it was 0.01 µg/mL (≈ 0.0211 µM); against Serratia marcescens T-26, 1.56 µg/mL (≈ 3.29 µM); in assay [3], 0.2 µg/mL (≈ 0.422 µM); in assay [4], 0.2 µg/mL (≈ 0.422 µM); in the assay with Proteus mirabilis 1287 it was 0.01 µg/mL (≈ 0.0211 µM). Moreover, the minimum inhibitory concentration (MIC) against Proteus vulgaris 6897 was 0.01 µg/mL (≈ 0.0211 µM); in assay [5], 1.56 µg/mL (≈ 3.29 µM).
For the molecule `CCOC(=O)C=CC1=C(C(=O)O)N2C(=O)C(NC(=O)C(=NOC)c3csc(N)n3)C2CC1` (racemic) [Compound of Ref. Ex. 10, (±)-6,7-cis-7-[2-(2-aminothiazol-4-yl)-2-syn-methoxyiminoacetamido]-3-(2-ethoxycarbonvlviayl)-1-azabicyclo [4.2.0]oct-2-en-8-oxo-2-carboxylic acid], the MIC in assay [1] was found to be 0.39 µg/mL (≈ 0.841 µM); in assay [2], 0.2 µg/mL (≈ 0.432 µM); in the assay on Serratia marcescens T-26, 3.13 µg/mL (≈ 6.75 µM); in assay [3], 1.56 µg/mL (≈ 3.37 µM); in assay [4] it was 0.78 µg/mL (≈ 1.68 µM); in the assay with Proteus mirabilis 1287, 0.1 µg/mL (≈ 0.216 µM). Further, the minimal inhibitory concentration (MIC) against Proteus vulgaris 6897 was 0.01 µg/mL (≈ 0.0216 µM); in assay [5], 6.25 µg/mL (≈ 13.5 µM).
